# Values quoted from earlier work as cited in patent publication US7596836B2 (priority 2007, dated 2009).
# Columns and labels:
# HIV = conditions: clinical trials; response directly related to the dosage given
# [1] = 250 mg chloroquine phosphate twice daily must be monitored closely
# [2] = in vivo
# Avian Influenza H5N1 = conditions: patients worldwide, current strain of Avian Influenza H5N1
# [3] = reports in Japan, including suicide attempts
# [4] = in vivo; remark: listed apart in the source
# influenza = conditions: dosage of a compound containing 1% to 3% thymol
compound,measurement,setting,value
CCN(CC)CCCC(C)Nc1ccnc2cc(Cl)ccc12 (stereo not shown) [chloroquine],efficacy against HIV,HIV,effective against HIV
same,toxicity of oral chloroquine,[1],ocular complications and renal toxicity
same,serum half-life,[2],96 h
CCOC(=O)C1=C[C@@H](OC(CC)CC)[C@H](NC(C)=O)[C@@H](N)C1 [oseltamivir],mortality of oseltamivir treated patients,Avian Influenza H5N1,~50%
same,reported side effects,[3],serious neuropsychiatric symptoms
CC1CCC(C(C)C)C(O)C1 (stereo not shown) [Menthol],reduction of coughing,[4],50%
"Cc1ccc(C(C)C)c(O)c1 [thymol, Thymol]",effect against influenza,influenza,effective at fighting influenza
